Measured values: the supplement of paper PMC10307832

How the values were obtained:
Assay in all cases: relative viability (nuclei count vs DMSO), 5 days (fraction); higher = more cells survive
[1] = compound: CC1(C)CNc2cc(NC(=O)c3cccnc3NCc3ccncc3)ccc21 [Motesanib] + C[C@@H](Oc1cc(-c2cnn(C3CCNCC3)c2)cnc1N)c1c(Cl)ccc(F)c1Cl [Crizotinib] (partner 1 µM)
In short: (§1)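 Lung cancer cell lines in 1536-well plates got either a single drug or a fixed anchor-drug dose together with five library-drug doses (not always all listed) in √10 steps, by pin tool, on the day after seeding. Nuclei were counted after 5 days, and relative viability is the treated-to-vehicle ratio of nuclei counts. Values are medians of duplicate plates.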

[2] = compound: C[C@@]1(C(=O)Nc2ccc(F)nc2)CCCN1c1nc(Nc2cc(C3CC3)n[nH]2)c2cccn2n1 + O=C(CCCCCCC(=O)Nc1ccccc1)NO [Vorinostat] (partner 1 µM)
In short: as §1

[3] = compound: C[C@@]1(C(=O)Nc2ccc(F)nc2)CCCN1c1nc(Nc2cc(C3CC3)n[nH]2)c2cccn2n1 + Cc1cc(Nc2cc(N3CCN(C)CC3)nc(Sc3ccc(NC(=O)C4CC4)cc3)n2)n[nH]1 [Tozasertib] (partner 0.1 µM)
In short: as §1

[4] = compound: CC1(C)CNc2cc(NC(=O)c3cccnc3NCc3ccncc3)ccc21 [Motesanib] + Nc1ncn([C@H]2C[C@H](O)[C@@H](CO)O2)c(=O)n1 [Decitabine] (partner 2 µM)
In short: as §1

| Cell Line | relative viability ([1]; first compound 0.01 µM) | relative viability ([1]; first compound 0.03162 µM) | relative viability ([1]; first compound 0.1 µM) | relative viability ([1]; first compound 0.3162 µM) | relative viability ([1]; first compound 1 µM) | relative viability ([2]; first compound 0.04 µM) | relative viability ([2]; first compound 0.1265 µM) | relative viability ([2]; first compound 0.4 µM) | relative viability ([2]; first compound 1.265 µM) | relative viability ([3]; first compound 0.04 µM) | relative viability ([3]; first compound 0.1265 µM) | relative viability ([3]; first compound 0.4 µM) | relative viability ([3]; first compound 1.265 µM) | relative viability ([4]; first compound 0.01 µM) | relative viability ([4]; first compound 0.03162 µM) | relative viability ([4]; first compound 0.1 µM) | relative viability ([4]; first compound 0.3162 µM) | relative viability ([4]; first compound 1 µM) |
| --- | --- | --- | --- | --- | --- | --- | --- | --- | --- | --- | --- | --- | --- | --- | --- | --- | --- | --- |
| COR-L 105 | 0.981 | 0.739 | 0.743 | 0.73 | 0.756 | 0.845 | 0.611 | 0.579 | 0.604 | 0.373 | 0.332 | 0.426 | 0.3 | 0.643 | 0.683 | 0.72 | 0.739 | 0.705 |
| NCI-H1975 | 1.05 | 0.848 | 0.93 | 0.889 | 0.983 | 0.639 | 0.62 | 0.576 | 0.316 | 0.682 | 0.646 | 0.513 | 0.316 | 0.364 | 0.459 | 0.406 | 0.487 | 0.426 |
| NCI-H1993 | 0.964 | 0.848 | 0.842 | 0.824 | 0.865 | 0.663 | 0.413 | 0.44 | 0.422 | 0.556 | 0.502 | 0.55 | 0.549 | 0.598 | 0.568 | 0.609 | 0.657 | 0.659 |
| RERF-LC-KJ | 0.87 | 0.762 | 0.878 | 0.768 | 0.879 | 0.747 | 0.605 | 0.621 | 0.467 | 0.544 | 0.506 | 0.33 | 0.236 | 0.652 | 0.752 | 0.719 | 0.67 | 0.665 |
| NCI-H23 | 0.484 | 0.373 | – | 0.497 | 0.612 | 0.473 | 0.332 | 0.27 | 0.178 | 0.382 | 0.269 | 0.316 | 0.516 | 0.31 | 0.382 | 0.436 | 0.52 | 0.523 |
| HCC-366 | 0.575 | 0.487 | 0.605 | 0.556 | 0.596 | 0.395 | 0.315 | 0.2 | 0.0599 | 0.677 | 0.102 | 0.0503 | 0.637 | 0.381 | 0.439 | 0.416 | 0.397 | 0.635 |
| EMC-BAC-2 | 0.761 | 0.656 | 0.765 | 0.739 | 0.674 | 0.37 | 0.343 | 0.304 | 0.178 | 0.25 | 0.277 | 0.215 | 0.201 | 0.956 | 0.979 | 1.01 | 0.984 | 1.04 |
| NCI-H2405 | 0.8 | 0.847 | 0.875 | 0.864 | 0.905 | 0.959 | 0.889 | 0.634 | 0.44 | 0.659 | 0.65 | 0.5 | 0.409 | 0.77 | 0.773 | 0.719 | 0.833 | 0.78 |
| NCI-H358 | 0.578 | 0.346 | 0.763 | 0.586 | 0.596 | 0.451 | 0.35 | 0.203 | 0.156 | 0.0856 | 0.0931 | 0.0786 | 0.0689 | 0.197 | 0.261 | 0.257 | 0.314 | 0.276 |
| NCI-H1944 | 1.08 | 1.06 | 1.17 | 1.02 | 1.17 | 0.548 | 0.448 | 0.482 | 0.545 | 0.251 | 0.239 | 0.203 | 0.245 | 0.477 | 0.444 | 0.495 | 0.534 | 0.508 |
| EPLC-272H | 0.935 | 0.969 | 1.05 | 1.04 | 0.944 | 0.578 | 0.234 | 0.336 | 0.406 | 0.182 | – | 0.178 | 0.287 | 0.37 | 0.371 | 0.387 | 0.335 | 0.402 |
| NCI-H1915 | 0.897 | 0.851 | 0.875 | 0.927 | 0.947 | 0.54 | 0.519 | 0.475 | 0.492 | 0.473 | 0.418 | 0.407 | 0.415 | 0.272 | 0.262 | 0.36 | 0.306 | 0.383 |
| NCI-H596 | 0.937 | 0.884 | 0.958 | 1.12 | 1.05 | 0.571 | 0.449 | 0.528 | 0.466 | 0.883 | 0.748 | 0.683 | 0.71 | 1.1 | 1.08 | 1.12 | 1.15 | 1.16 |
| NCI-H322M | 1.06 | 0.835 | 1.04 | 0.974 | 0.946 | 0.794 | 0.688 | 0.638 | 0.64 | 0.464 | 0.347 | 0.361 | 0.391 | 0.688 | 0.672 | 0.707 | 0.685 | 0.777 |
| NCI-H647 | 1 | 1.06 | 1.2 | 1.19 | 0.964 | 0.711 | 0.574 | 0.489 | 0.289 | 0.543 | 0.217 | 0.159 | 0.123 | 0.43 | 0.441 | 0.488 | 0.542 | 0.535 |
| SK-MES-1 | 0.983 | 0.986 | 1.01 | 1.05 | 0.977 | 1.21 | 1.05 | 0.859 | 0.354 | 0.979 | 0.968 | 0.8 | 0.207 | 0.358 | 0.383 | 0.59 | 0.561 | 0.695 |
| NCI-H2170 | 1.16 | 1.19 | 1.15 | 1.13 | 1.18 | 0.825 | 0.729 | 0.819 | 0.743 | 0.671 | 0.791 | 0.636 | 0.559 | 0.485 | 0.509 | 0.575 | 0.576 | 0.604 |
| NCI-H2085 | 0.924 | 0.846 | 1.05 | 0.807 | 0.756 | 0.779 | 0.728 | 0.69 | 0.569 | 0.892 | 0.795 | 0.664 | 0.92 | 0.551 | 0.684 | 0.702 | 0.644 | 0.71 |
